Patent publication US20240294509A1, “PYRIDAZINONE COMPOUND AS PARP7 INHIBITOR” (Euregen Biopharma Co., Ltd., priority 2021, published 2024)

What was measured:
[1] = biological target: PARP7 (Homo sapiens (Human), UniProt Q7Z3E1)
Protocol: (§5) Experimental Principle: The inhibitory effect of the test substance on the enzymatic activity of PARP1/7 is assessed by using an Enzyme-Linked Immunosorbent Assay (ELISA).
(§6) (1) Pre-coating: Add 100 μL of a PBS buffer (10 mM NaH2PO4, 10 mM Na2HPO4, 150 mM NaCl, pH 7.4) containing 20 g/mL of histone to each well of a 96-well plate, and incubate at 4° C. overnight.
(§7) (3) Add 5 μL of the test substance or solvent to each well.
(§8) (4) Add 20 μL of(PARP1 or PARP7 (50 ng/well), and incubate at 30° C. for 1 hour.
(§9) (5) Add 50 μL of streptavidin-HRP to the reaction mixture, and incubate at 30° C. for 30 minutes.
(§10) (6) Finally, add 100 μL of a citrate buffer containing H2O2 and luminol (0.1 M, pH 5.4), and measure the luminescent signal using a microplate reader (Molecular Devices SpectraMax M5).
(§11) (7) Calculate the inhibition rate of PARP1 or PARP7 enzyme activity as [(control group−treatment group)/control group]×10000. Fit the dose-response data with standard dilutions using Prism GraphPad software and calculate the concentration required to achieve 5000 inhibition of PARP1 or PARP7 enzyme activity (IC50).

[2] = biological target: PARP1 (Homo sapiens (Human), UniProt P09874)
Protocol: as §5, §6, §7, §8, §9, §10, §11

[3] = tested on: NCI-H1373 cells; assay: Inhibitory effect on the proliferation of NCI-H1373 cells (CellTiter-Glo); assay type: cell-based; details: Homo sapiens, 144 h, 6 days treatment
Source text: 1. Experimental Principle: NCI-H1373 cells are a type of lung adenocarcinoma cells that overexpress PARP7.
2. Experimental Materials: NCI-H1373 cells were obtained from Nanjing Cobioer Biosciences Co., Ltd. CellTiter-Glo® (cell viability chemiluminescent assay reagent) was purchased from Promega (Catalog No. G7571). RPMI-1640 medium was obtained from ATCC (Catalog No. 30-2001). RPMI-1640 medium, penicillin/streptomycin antibiotics were purchased from WISENT. Fetal bovine serum was obtained from Biosera. The Nivo multimode reader was procured from PerkinElmer.
3. Experimental Method: NCI-H1373 cells were seeded in a white 96-well plate with 80 μL of cell suspension per well, containing 3000 NCI-H1373 cells. The cell plate was incubated overnight in a carbon dioxide (CO2) incubator.
The test compounds were serially diluted 5-fold to the 9th concentration, ranging from 2 mmol/L to 5.12 nmol/L, for a duplicate assay. 78 μL of culture medium was added to the intermediate plate, and then, according to the corresponding positions, 2 μL of each gradient-diluted compound was transferred to the intermediate plate. After thorough mixing, 20 μL of the compound solution was transferred to the cell plate. The compound concentration range in the cell plate ranged from 10 μmol/L to 0.0256 nmol/L. The cell plate was incubated in a CO2 incubator for 6 days.
Another cell plate was prepared, and the signal values were read on the day of dosing to obtain the maximum value referred to as Max in the following equation for data analysis. 25 μL of cell viability chemiluminescent assay reagent was added to each well of this cell plate, and it was incubated at room temperature for 10 minutes to stabilize the luminescent signal. Readings were taken using a multimode reader.
After 6 days of treatment, 25 μL of cell viability chemiluminescent assay reagent was added to each well of the cell plate, and it was incubated at room temperature for 10 minutes to stabilize the luminescent signal. Readings were taken using a multimode reader.
The IC50 value was determined by four-parameter curve fitting (obtained by using the “log(inhibitor) vs. response—Variable slope” model in GraphPad Prism).

[4] = Metabolic stability in human liver microsomes; assay type: in vitro ADME; details: pH 7.4, 1.00 μM compound, 0.5 mg/mL protein, read-out: intrinsic clearance, Clint
Protocol: (§1) 1. Experiment purpose: This study aims to determine the metabolic stability of selected compounds from the embodiments of the invention in liver microsomes of humans, dogs, monkeys, rats, and mice using the LC-MS/MS method.
(§2) Test compounds: The test drug is self-made from the example compounds of the present invention; Positive control compound RBN2397 purchased from Shanghai BioChemPartner Biotechnology Co., Ltd.
(§3) Liver microsomes obtained from Xenotech.
(§4) The incubation was carried out at 37° C. in a CO2 incubator. The reactions were terminated by adding 150 μL of cold acetonitrile at different time points (0, 5, 15, 30, and 45 minutes). The 96-well plate was shaken at 600 rpm for 10 minutes, followed by centrifugation at 6000 rpm for 15 minutes. The supernatant (80 μL) was mixed with 140 μL of pure water, and the remaining amount of the compound was determined using LC-MS/MS. The intrinsic clearance (Clint) was calculated using the formula Clint=k/liver microsomes protein concentration, where “k” is the linear regression slope of log compound remaining percentage against incubation time.

[5] = Metabolic stability in dog liver microsomes; assay type: in vitro ADME; details: pH 7.4, 1.00 μM compound, 0.5 mg/mL protein, read-out: intrinsic clearance, Clint
Protocol: as §1, §2, §3, §4

[6] = Metabolic stability in rat liver microsomes; assay type: in vitro ADME; details: pH 7.4, 1.00 μM compound, 0.5 mg/mL protein, read-out: intrinsic clearance, Clint
Protocol: as §1, §2, §3, §4

[7] = Pharmacokinetic properties in SD rats after single intravenous injection and oral administration; assay type: in vivo; details: SD male rats; for F: oral bioavailability; for AUC(0-inf) / Cmax / clearance / half-life: rat, plasma
Source text: 1. Test purpose: to determine the pharmacokinetic characteristics of some of the example compound of the present invention in SD rats after single intravenous injection(IV) and oral administration(PO) by LC-MS/MS method.
2. Test material: the test drug is self-made from the example compounds of the present invention; Positive control compound RBN2397 purchased from Shanghai BioChemPartner Biotechnology Co., Ltd. SD male rats were obtained from the Laboratory Animal Management Department of Shanghai Family Planning Research Institute. Animal production license number (SCXK (Shanghai) 2018-0006).
Preparation of 0.5% methyl cellulose: 5 g of methyl cellulose were weighed and dissolved in 1000 mL of purified water.
Preparation of oral formulation: A required amount of test compound was weighed and dissolved in 0.5% methyl cellulose solution to obtain a suspension or solution of 0.5 mg/mL or 1.0 mg/mL.
Preparation of intravenous injection formulation: A required amount of test compound was weighed, and dissolved in 0.5 mL of dimethyl sulfoxide to prepare a solution of 4 mg/mL. 0.25 mL of the above solution was added into 0.5 mL of polyethylene glycol 15 hydroxystearate (solutol) and 4.25 mL of physiological saline to obtain a solution of 0.2 mg/mL.
Administration: SD male rats were orally administered (PO) after fasting overnight, and fed 4 hours after administration.
Sample Collection: blood was collected through jugular vein or other suitable vein, and 0.2 mL of blood was collected at each time point. Samples were placed into tubes containing ethylenediamine tetraacetic acid dipotassium salt and kept on ice before centrifugation. Within 1 hour after blood collection, the blood samples were centrifuged at 2-8° C. and 6800 g for 6 minutes and stored at −80° C. The time point for blood collection was 0.083, 0.25, 0.5, 1, 2, 4, 8 and 24 hours after intravenous administration, and 0.25, 0.5, 1, 2, 4, 6, 8 and 24 hours after oral administration.
The intravenous dosage was 1 mg/kg, and the pharmacokinetic parameters for oral administration were standardized to a 1 mg/kg dose.

[8] = Oral gavage, standardized to a 1 mg/kg dose

PARP7, sequence (Q7Z3E1 whole entry): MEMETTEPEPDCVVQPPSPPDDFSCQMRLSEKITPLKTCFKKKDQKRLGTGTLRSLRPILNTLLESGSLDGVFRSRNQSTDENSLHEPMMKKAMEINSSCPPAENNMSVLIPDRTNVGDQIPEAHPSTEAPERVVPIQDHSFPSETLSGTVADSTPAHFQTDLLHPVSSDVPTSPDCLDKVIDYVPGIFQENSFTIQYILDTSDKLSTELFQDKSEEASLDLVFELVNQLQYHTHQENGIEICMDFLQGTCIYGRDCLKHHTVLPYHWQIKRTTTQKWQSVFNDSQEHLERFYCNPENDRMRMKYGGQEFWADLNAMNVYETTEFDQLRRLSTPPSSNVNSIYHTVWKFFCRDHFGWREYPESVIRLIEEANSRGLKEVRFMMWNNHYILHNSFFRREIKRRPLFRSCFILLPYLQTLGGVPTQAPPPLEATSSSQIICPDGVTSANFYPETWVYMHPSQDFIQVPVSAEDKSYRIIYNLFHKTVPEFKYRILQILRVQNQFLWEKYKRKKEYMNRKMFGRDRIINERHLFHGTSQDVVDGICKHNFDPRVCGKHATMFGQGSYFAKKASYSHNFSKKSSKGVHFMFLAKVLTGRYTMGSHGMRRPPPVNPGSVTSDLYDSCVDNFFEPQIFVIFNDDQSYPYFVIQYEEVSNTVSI
PARP1, sequence (P09874 whole entry): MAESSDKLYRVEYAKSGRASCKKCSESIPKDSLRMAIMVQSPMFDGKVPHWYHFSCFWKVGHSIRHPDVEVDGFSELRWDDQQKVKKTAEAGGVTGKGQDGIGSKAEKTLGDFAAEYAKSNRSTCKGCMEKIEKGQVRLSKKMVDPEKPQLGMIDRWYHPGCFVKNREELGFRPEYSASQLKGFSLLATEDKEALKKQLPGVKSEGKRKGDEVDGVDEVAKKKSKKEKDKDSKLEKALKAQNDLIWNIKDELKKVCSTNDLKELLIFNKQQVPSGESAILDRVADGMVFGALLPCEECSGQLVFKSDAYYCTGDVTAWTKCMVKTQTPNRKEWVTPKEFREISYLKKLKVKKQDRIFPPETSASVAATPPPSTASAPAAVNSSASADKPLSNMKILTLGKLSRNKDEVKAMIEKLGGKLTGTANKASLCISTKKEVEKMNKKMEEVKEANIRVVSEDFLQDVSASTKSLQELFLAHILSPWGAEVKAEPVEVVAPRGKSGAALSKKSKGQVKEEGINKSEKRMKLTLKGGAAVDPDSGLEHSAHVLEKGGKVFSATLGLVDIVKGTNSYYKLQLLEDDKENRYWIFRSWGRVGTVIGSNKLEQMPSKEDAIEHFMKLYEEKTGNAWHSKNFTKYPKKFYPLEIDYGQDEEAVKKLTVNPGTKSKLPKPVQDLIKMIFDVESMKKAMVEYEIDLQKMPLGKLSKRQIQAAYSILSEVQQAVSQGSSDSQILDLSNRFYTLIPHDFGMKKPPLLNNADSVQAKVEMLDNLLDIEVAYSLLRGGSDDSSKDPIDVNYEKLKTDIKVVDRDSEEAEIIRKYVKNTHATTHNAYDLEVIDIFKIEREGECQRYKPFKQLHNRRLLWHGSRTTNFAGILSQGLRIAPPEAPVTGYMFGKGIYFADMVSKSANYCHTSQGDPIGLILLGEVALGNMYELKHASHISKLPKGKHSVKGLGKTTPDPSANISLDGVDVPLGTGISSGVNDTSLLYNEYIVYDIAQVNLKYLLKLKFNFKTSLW

Structure (SMILES) | IC50 [1] | IC50 [2] | IC50 [3] | further results
C[C@H]1CC[C@@H](CCC(=O)N2CCN(c3ncc(C(F)(F)F)cn3)CC2)N1c1cc(C(F)(F)F)c(=O)[nH]n1 [Compound 39] | 0.008 µM | 0.06 µM | – | –
N[C@H]1C[C@@H](CCC(=O)N2CCN(c3ncc(C(F)(F)F)cn3)CC2)N(c2cc(C(F)(F)F)c(=O)[nH]n2)C1 [Compound 42] | 0.037 µM | 0.006 µM | – | –
O=C(CC[C@@H]1C[C@H](N2CCCC2)CN1c1cc(C(F)(F)F)c(=O)[nH]n1)N1CCN(c2ncc(C(F)(F)F)cn2)CC1 [Compound 38] | 0.005 µM | 0.036 µM | – | –
CO[C@@H]1C[C@@H](C(=O)N2CCN(c3ncc(C(F)(F)F)cn3)CC2)N(c2cc(C(F)(F)F)c(=O)[nH]n2)C1 [Compound 70] | – | – | 0.0582 µM | –
O=C(CC[C@@H]1C[C@H](F)CN1c1cc(C(F)(F)F)c(=O)[nH]n1)N1CCN(c2ncc(C(F)(F)F)cn2)CC1 [Compound 43] | 0.004 µM | 0.004 µM | – | –
C[C@@H]1C[C@@H](CCC(=O)N2CCN(c3ncc(C(F)(F)F)cn3)CC2)N(c2cc(C(F)(F)F)c(=O)[nH]n2)C1 [Compound 29] | 0.0256 µM | 0.0183 µM | – | –
O=C(CC[C@@H]1C[C@@H](F)CN1c1cc(C(F)(F)F)c(=O)[nH]n1)N1CCN(c2ncc(C(F)(F)F)cn2)CC1 [Compound 20] | – | – | 0.0124 µM | CLint scaled at 1 μM [4]: 2.8 L/h/kg; CLint scaled at 1 μM [5]: 1.72 L/h/kg; CLint scaled at 1 μM [6]: 4.46 L/h/kg; F ([7]; Oral gavage): 15.53%; AUC(0-inf) ([7]; Intravenous injection, 1 mg/kg): 0.523 µg·h/mL; Cmax ([7]; Intravenous injection, 1 mg/kg): 0.734 µg/mL; clearance ([7]; Intravenous injection, 1 mg/kg): 1.92 L/h/kg; half-life ([7]; Intravenous injection, 1 mg/kg): 0.82 h; AUC(0-inf) [7, 8]: 0.0944 µg·h/mL; Cmax [7, 8]: 0.015 µg/mL
O=C(CC[C@@H]1C[C@@H](c2ccccc2)CN1c1cc(C(F)(F)F)c(=O)[nH]n1)N1CCN(c2ncc(C(F)(F)F)cn2)CC1 [Compound 52] | – | – | 0.0959 µM | –
O=C(CC[C@@H]1C[C@@H](Oc2cc(F)cc(F)c2)CN1c1cc(C(F)(F)F)c(=O)[nH]n1)N1CCN(c2ncc(C(F)(F)F)cn2)CC1 [Compound 51] | – | – | 0.0692 µM | –
O=C(CC[C@@H]1CCCN1c1cc(C(F)(F)F)c(=O)[nH]n1)N1CCN(c2ncc(C(F)(F)F)cn2)CC1 [Compound 6] | – | – | 0.01 µM | CLint scaled at 1 μM [4]: 3.88 L/h/kg; CLint scaled at 1 μM [5]: 1.9 L/h/kg; CLint scaled at 1 μM [6]: 8.2 L/h/kg; F ([7]; Oral gavage): 18.1%; AUC(0-inf) ([7]; Intravenous injection, 1 mg/kg): 1.38 µg·h/mL; Cmax ([7]; Intravenous injection, 1 mg/kg): 1.95 µg/mL; clearance ([7]; Intravenous injection, 1 mg/kg): 0.733 L/h/kg; half-life ([7]; Intravenous injection, 1 mg/kg): 1.43 h; AUC(0-inf) [7, 8]: 0.248 µg·h/mL; Cmax [7, 8]: 0.0304 µg/mL
CO[C@H]1C[C@@H](CCC(=O)N2CCN(c3ncc(C(F)(F)F)cn3)CC2)N(c2cc(C(F)(F)F)c(=O)[nH]n2)C1 [Compound 34] | 0.0033 µM | 0.0136 µM | – | –
O=C(CC[C@@H]1C[C@@H](O)CN1c1cc(C(F)(F)F)c(=O)[nH]n1)N1CCN(c2ncc(C(F)(F)F)cn2)CC1 [Compound 31] | 0.0044 µM | 0.0259 µM | – | –
O=C(CC[C@H]1CCCN1c1cc(C(F)(F)F)c(=O)[nH]n1)N1CCN(c2ncc(C(F)(F)F)cn2)CC1 [Compound 18] | 0.0022 µM | 0.0025 µM | – | –
